Laboratory results: ChEMBL document CHEMBL1155669, “Herbacic acid, a simple prototype of 5,5,5-trichloroleucine metabolites from the sponge Dysidea herbacea” (J Nat Prod, 2000)
Active and inactive are the calls of the source.

Legend:
Type in all cases: functional, organism-based
[1] = tested on: Pichia kudriavzevii; assay: Antifungal activity against Candida krusei at <100 ug/mL by microbroth dilution method
[2] = tested on: Candida albicans; assay: Antifungal activity against fluconazole-resistant Candida albicans 96-489 at <100 ug/mL by microbroth dilution method
[3] = tested on: Nakaseomyces glabratus; assay: Antifungal activity against Candida glabrata at <100 ug/mL by microbroth dilution method
[4] = tested on: Candida albicans; assay: Antifungal activity against Candida albicans ATCC 4503 at <100 ug/mL by microbroth dilution method

Measured: Activity

C[C@@H](C/C=C/C(=O)N(C)[C@@H](C[C@H](C)C(Cl)(Cl)Cl)C(=O)O)C(Cl)(Cl)Cl
inactive: [1] | [2] | [3] | [4]
